Among the data in patent US12516038B2, “Inhibitors of antigen presentation by HLA-DR” (Janssen Pharmaceutica NV, priority 2020, dated 2026) are IC50 values, retold here.

The target in one assay is HLA-DRB1*0401 (Homo sapiens (Human), UniProt P01903+P01911, A100K/A169T/DEL228-266/F76Y/I96L/K127E/L162R/M171V/N62H/P40V/Q125Y/R42H/S133A/S149N/S66Y/V115G/V209L/W38E). Put plainly: HLA-DR4 HTRF assay. The format is binding. Particulars: inhibition of loading of Alexa Fluor 647-labeled Cit-CII peptide onto HLA-DR4 (CLIP cleaved). The procedure, abridged: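 HLA-DRB1*04:01 construct (α/β fused to human Fc, CLIP pre-cleaved by HRV3C overnight at 4° C) at 3 nM was preincubated 45 min with compound and 1 nM anti-Fc-Tb donor, then 40 nM Alexa647-Cit-CII1236-1249 peptide added. After 90 min at 37° C, the 665/620 nm HTRF ratio gave % inhibition; IC50 by nonlinear regression.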
(TR-FRET usually uses a lanthanide donor and a delayed reading to cut background.)

Assay [1] concerns HLA-DR4 restricted mouse T cell hybridoma line (DR4.CII.36.8) with HLA-DRB1*04:01-expressing Boleth cells. Briefly: HLA-DR4-restricted peptide-specific T cell-based assay (hybridoma assay). The settings on record: inhibition of IL-2 production, CII259-273 peptide presented by Boleth cells, 6 h. The method in brief:
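Boleth cells (HLA-DRB1*04:01 B cell line) pre-incubated with compound 1 h at 37° C. in DMEM/1% FCS, then DR4.CII.36.8 mouse T cell hybridoma (CII259-273-specific) added for 6 h with CII259-273 peptide. Supernatant mouse IL-2 by AlphaLISA; IC50 by 4-PL fit of 8-point duplicate titrations.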

pIC50: −log10 of the molar value. Bounds are passed on as bounds.

For `Cc1c(O[C@H](c2ccc(C(N)=O)cc2)c2cccc[n+]2[O-])ccc2c1OCCC2=O` (single isomer, unassigned) [Example 65a, (*R)-2-((4-carbamoylphenyl)((8-methyl-4-oxochroman-7-yl)oxy)methyl)pyridine 1-oxide], the pIC50 (as a rule, −log10 of the IC50, conventionally taken in molar units) at HLA-DRB1*0401 is 4.52; in assay [1] it was less than 4.82.
Consider `C[C@H]1COc2cc(O[C@@H](c3ccncc3)c3ccc(C(N)=O)cc3)ccc2C1=O` (single isomer, unassigned) [Example 44c, 4-((*R)—(((*S)-3-Methyl-4-oxochroman-7-yl)oxy)(pyridin-4-yl)methyl)benzamide], for which the negative logarithm of the IC50 (pIC50) was 5.89 at HLA-DRB1*0401 and less than 4.82 in assay [1] (Mus musculus, T-cell).
Taken in the same sequence, the figures for `Cc1c(O[C@@H](c2ccncc2)c2cccc(CNC(N)=O)c2)ccc2c1OCCC2=O` (single isomer, unassigned) [Example 81a, (*R)-1-(3-(((8-methyl-4-oxochroman-7-yl)oxy)(pyridin-4-yl)methyl)benzyl)urea] were 6.16 and 4.82.
In the case of `COc1ccc([C@H](Oc2c(F)cc3c(c2C)OCCC3=O)c2ccncc2)cc1` (single isomer, unassigned) [Example 103b, (*S)-6-fluoro-7-((4-methoxyphenyl)(pyridin-4-yl)methoxy)-8-methylchroman-4-one], the pIC50 against HLA-DRB1*0401 is 5.55; in assay [1] (Mus musculus, T-cell) it was 4.82.
Taken in the same sequence, the figures for `Cc1c(O[C@H]2CCc3cnccc32)ccc2c1OCCC2=O` (single isomer, unassigned) [Example 124b, (*S)-7-((6,7-dihydro-5H-cyclopenta[c]pyridin-5-yl)oxy)-8-methylchroman-4-one] were 6.13 and 5.22.
Take `Cc1cc([C@@H](Oc2ccc3c(c2C#N)OCCC3=O)c2ccc(C(N)=O)cc2)cc(C)n1` (single isomer, unassigned) [Example 110b, (*S)-4-(((8-cyano-4-oxochroman-7-yl)oxy)(2,6-dimethylpyridin-4-yl)methyl)benzamide]: the negative-log IC50 (pIC50) against HLA-DRB1*0401 was 6.21; in assay [1] (Mus musculus, T-cell), 6.10.
For `Cc1c(O[C@@H]2CCCc3cc(C#N)ccc32)ccc2c1OCCC2=O` (single isomer, unassigned) [Example 122a, (*R)-5-((8-methyl-4-oxochroman-7-yl)oxy)-5,6,7,8-tetrahydronaphthalene-2-carbonitrile], the pIC50 at HLA-DRB1*0401 is 6.27; in assay [1] (Mus musculus, T-cell) it was 5.20.
As to `NC(=O)c1ccc([C@H](Oc2ccc3c(c2)OCCC3=O)c2ccncc2)c2ccccc12` (single isomer, unassigned) [Example 98a, (*R)-4-(((4-oxochroman-7-yl)oxy)(pyridin-4-yl)methyl)-1-naphthamide], the negative logarithm of the IC50 (pIC50) was 5.05 on HLA-DRB1*0401 and 5.23 in assay [1] (Mus musculus, T-cell).
Take `O=C1CCOc2cc(O[C@@H](c3ccncc3)c3cccc(O)c3)ccc21` (single isomer, unassigned) [Example 5b, (*S)-7-((3-Hydroxyphenyl)(pyridin-4-yl)methoxy)chroman-4-one]: the pIC50 on HLA-DRB1*0401 is 4.85; in assay [1] (Mus musculus, T-cell), 5.28.
With `COc1ccccc1[C@@H](Oc1ccc2c(c1)OCCC2=O)c1ccncc1` (single isomer, unassigned) [Example 14b, (*S)-7-((2-Methoxyphenyl)(pyridin-4-yl)methoxy)chroman-4-one], the pIC50 against HLA-DRB1*0401 is 5.72; in assay [1] (Mus musculus, T-cell) it was 4.96.
On to `NC(=O)c1ccccc1[C@H](Oc1ccc2c(c1)OCCC2=O)c1ccncc1` (single isomer, unassigned) [Example 8a, (*R)-2-(((4-Oxochroman-7-yl)oxy)(pyridin-4-yl)methyl)benzamide], for which the pIC50 was 6.17 at HLA-DRB1*0401 and less than 4.82 in assay [1] (Mus musculus, T-cell).
Taken in the same sequence, the figures for `NC(=O)c1ccc([C@H](Oc2ccc3c(c2)OCCC3=O)c2ccncn2)cc1` (single isomer, unassigned) [Example 33b, (*S)-4-(((4-Oxochroman-7-yl)oxy)(pyrimidin-4-yl)methyl)benzamide] were 6.23 and less than 4.82.
Turning to `COc1cccc([C@H](Oc2ccc3c(c2)OCCC3=O)c2ccncc2)c1` (single isomer, unassigned) [Example 13a, (*R)-7-((3-methoxyphenyl)(pyridin-4-yl)methoxy)chroman-4-one], the pIC50 was 5.70 at HLA-DRB1*0401 and less than 4.82 in assay [1] (Mus musculus, T-cell).
With `CC(C)c1c(O[C@@H](c2ccc(C(N)=O)cc2)c2cccc(C#N)c2)ccc2c1OCCC2=O` (single isomer, unassigned) [Example 107b, (*S)-4-((3-cyanophenyl)((8-isopropyl-4-oxochroman-7-yl)oxy)methyl)benzamide], the negative-log IC50 (pIC50) on HLA-DRB1*0401 is 5.96; in assay [1] (Mus musculus, T-cell), 5.64.
Taken in the same sequence, the figures for `NC(=O)c1ccc([C@@H](Oc2ccc3c(c2)OCCC3=O)c2ccncc2F)cc1` (single isomer, unassigned) [Example 20a, (*R)-4-((3-fluoropyridin-4-yl)((4-oxochroman-7-yl)oxy)methyl)benzamide] were 5.92 and 5.16.
With `Cc1c(O[C@@H](c2ccc(C(N)=O)cc2)c2cccc(F)c2)ccc2c1OCCC2=O` (single isomer, unassigned) [Example 67b, (*S)-4-((3-Fluorophenyl)((8-methyl-4-oxochroman-7-yl)oxy)methyl)benzamide], the pIC50 at HLA-DRB1*0401 is 5.66; in assay [1] (Mus musculus, T-cell) it was less than 4.82.
As to `Cc1c(O[C@@H](c2ccc(C(N)=O)cc2)c2ccc(F)c(F)c2)c(F)cc2c1OCCC2=O` (single isomer, unassigned) [Example 91b, (*S)-4-((3,4-difluorophenyl)((6-fluoro-8-methyl-4-oxochroman-7-yl)oxy)methyl)benzamide], the negative logarithm of the IC50 (pIC50) was 6.46 against HLA-DRB1*0401 and less than 4.82 in assay [1] (Mus musculus, T-cell).
Turning to `COc1ccc([C@@H](Oc2c(F)cc3c(c2C)OCCC3=O)c2ccncc2)cc1` (single isomer, unassigned) [Example 103a, (*R)-6-fluoro-7-((4-methoxyphenyl)(pyridin-4-yl)methoxy)-8-methylchroman-4-one], the negative-log IC50 (pIC50) is 5.54 against HLA-DRB1*0401 and 4.82 in assay [1] (Mus musculus, T-cell).
Taken in the same sequence, the figures for `Cc1cc(COc2ccc3c(c2C(C)C)OCCC3=O)cc(C)n1` [Example 117, 7-((2,6-Dimethylpyridin-4-yl)methoxy)-8-isopropylchroman-4-one] were 6.17 and 5.51.
Consider `C[C@H]1COc2cc(O[C@H](c3ccncc3)c3ccc(C(N)=O)cc3)ccc2C1=O` (single isomer, unassigned) [Example 44d, 4-((*S)—(((*S)-3-Methyl-4-oxochroman-7-yl)oxy)(pyridin-4-yl)methyl)benzamide], for which the negative-log IC50 (pIC50) against HLA-DRB1*0401 is 6.07; in assay [1] (Mus musculus, T-cell), less than 4.82.
For `Cc1c(O[C@H](c2ccc(C(N)=O)cc2)c2ccc(S(C)(=O)=O)cc2)c(F)cc2c1OCCC2=O` (single isomer, unassigned) [Example 93a, (*R)-4-(((6-fluoro-8-methyl-4-oxochroman-7-yl)oxy)(4-(methylsulfonyl)phenyl)methyl)benzamide], the pIC50 was 6.72 at HLA-DRB1*0401 and 5.22 in assay [1] (Mus musculus, T-cell).
On to `Cc1c(OC2CCCc3cc(C#N)ccc32)ccc2c1OCCC2=O` (racemic) [Example 122, (R,S)-5-((8-Methyl-4-oxochroman-7-yl)oxy)-5,6,7,8-tetrahydronaphthalene-2-carbonitrile], for which the pIC50 is 5.96 against HLA-DRB1*0401 and 4.82 in assay [1] (Mus musculus, T-cell).
For `C[C@@H]1CC(=O)c2ccc(O[C@H](c3ccncc3)c3ccc(C(N)=O)cc3)cc2O1` (single isomer, unassigned) [Example 39a, 4-((*S)—(((*R)-2-Methyl-4-oxochroman-7-yl)oxy)(pyridin-4-yl)methyl)benzamide], the pIC50 at HLA-DRB1*0401 was 5.96; in assay [1] (Mus musculus, T-cell), 4.85.
In the case of `Cc1cc([C@H](Oc2ccc3c(c2C(C)C)OCCC3=O)c2ccc(C(N)=O)cc2)cc(C)n1` (single isomer, unassigned) [Example 106a, (*R)-4-((2,6-dimethylpyridin-4-yl)((8-isopropyl-4-oxochroman-7-yl)oxy)methyl)benzamide], the pIC50 on HLA-DRB1*0401 was 6.33; in assay [1] (Mus musculus, T-cell), 7.24.
In the case of `Cc1cc([C@@H](Oc2cc3c(cc2F)C(=O)CCO3)c2ccc(C(N)=O)cc2)cc(C)n1` (single isomer, unassigned) [Example 109b, (*S)-4-((2,6-dimethylpyridin-4-yl)((6-fluoro-4-oxochroman-7-yl)oxy)methyl)benzamide], the pIC50 was 6.64 on HLA-DRB1*0401 and 4.92 in assay [1].
In the case of `NC(=O)c1ccc([C@@H](Oc2ccc3c(c2)OCCC3=O)c2ccc(Cl)cc2)cc1` (single isomer, unassigned) [Example 30a, (*R)-4-((4-Chlorophenyl)((4-oxochroman-7-yl)oxy)methyl)benzamide], the pIC50 at HLA-DRB1*0401 is 6.03; in assay [1] (Mus musculus, T-cell) it was 5.23.
Regarding `COc1cc(C(N)=O)ccc1[C@@H](Oc1ccc2c(c1C)OCCC2=O)c1ccncc1` (single isomer, unassigned) [Example 82b, (*S)-3-Methoxy-4-(((8-methyl-4-oxochroman-7-yl)oxy)(pyridin-4-yl)methyl)benzamide], the pIC50 is 6.21 against HLA-DRB1*0401 and 5.24 in assay [1] (Mus musculus, T-cell).
